Data from patent publication US10533010B2, “Substituted indole Mcl-1 inhibitors” (Vanderbilt University, priority 2014, dated 2020).

Molecular target: recombinant Mcl-1 (residues 172-327) (Homo sapiens (Human), UniProt Q07820)
Assay: Fluorescence polarization anisotropy competition assay (FITC-Bak or FITC-Bim BH3 peptide) with Mcl-1
Assay type: binding
Details: Table 2; Ki bins given in nM; FITC-Bak or FITC-Bim peptide competition; Ki converted from IC50; read-out: Ki for Inhibition of Mcl-1

Sequence of recombinant Mcl-1 (residues 172-327) (Q07820 172-327): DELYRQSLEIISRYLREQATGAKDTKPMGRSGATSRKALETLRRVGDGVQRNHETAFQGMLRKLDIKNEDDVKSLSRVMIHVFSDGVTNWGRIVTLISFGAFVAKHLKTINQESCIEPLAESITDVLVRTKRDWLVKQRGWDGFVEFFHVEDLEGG

| Structure (SMILES) | Ki [nM] |
| --- | --- |
| Cc1cc(OCCCc2c3n(c4c(-c5c(C)nn(C)c5C)c(Cl)ccc24)CCCN(c2cc(C(=O)O)c4c(Cl)cn(C)c4c2)C3=O)cc(C)c1Cl [I-257, 3-chloro-6-(8-chloro-11-(3-(4-chloro-3,5-dimethylphenoxy)propyl)-1-oxo-7-(1,3,5-trimethyl-1H-pyrazol-4-yl)-4,5-dihydro-1H-[1,4]diazepino[1,2-a]indol-2(3H)-yl)-1-methyl-1H-indole-4-carboxylic acid] | < 50 |
| CCOC(=O)c1ccc(CNC(=O)c2c(CCCOc3cc(C)c(Cl)c(C)c3)c3cccc(-c4c(C)nn(C)c4C)c3n2C)o1 [I-65, ethyl 5-((3-(3-(4-chloro-3,5-dimethylphenoxy)propyl)-1-methyl-7-(1,3,5-trimethyl-1H-pyrazol-4-yl)-1H-indole-2-carboxamido)methyl)furan-2-carboxylate] | 301 to 500 |
| Cc1cc(OCCCc2c(C(=O)NCc3cccc(C(=O)NS(=O)(=O)c4ccc([N+](=O)[O-])cc4)c3)[nH]c3c(-c4c(C)n[nH]c4C)cccc23)cc(C)c1Cl [I-27, 3-(3-(4-chloro-3,5-dimethylphenoxy)propyl)-7-(3,5-dimethyl-1H-pyrazol-4-yl)-N-(3-(((4-nitrophenyl)sulfonyl)carbamoyl)benzyl)-1H-indole-2-carboxamide] | < 50 |
| Cc1cc(OCCCc2c3n(c4c(-c5c(C)nn(C)c5C)c(Cl)ccc24)[C@H](C)CN(c2cc(C(=O)O)c4ccn(C)c4c2)C3=O)cc(C)c1Cl [I-174, (R)-6-(7-chloro-10-(3-(4-chloro-3,5-dimethylphenoxy)propyl)-4-methyl-1-oxo-6-(1,3,5-trimethyl-1H-pyrazol-4-yl)-3,4-dihydropyrazino[1,2-a]indol-2(1H)-yl)-1-methyl-1H-indole-4-carboxylic acid] | < 50 |
| Cc1cc(OCCCc2c3n(c4c(-c5c(C)nn(C)c5C)c(Cl)ccc24)C(C)[C@@H](C)N(c2ccc(C(=O)O)c4ncccc24)C3=O)cc(C)c1Cl (stereo partly drawn) [I-164, 5-((3R)-7-chloro-10-(3-(4-chloro-3,5-dimethylphenoxy)propyl)-3,4-dimethyl-1-oxo-6-(1,3,5-trimethyl-1H-pyrazol-4-yl)-3,4-dihydropyrazino[1,2-a]indol-2(1H)-yl)quinoline-8-carboxylic acid] | 51 to 100 |
| Cc1cc(OCCCc2c3n(c4c(-c5c(C)nn(C)c5C)c(Cl)ccc24)CCN(c2cc(C(=O)O)c4ccn(C)c4c2)C3=O)cc(C)c1Cl [I-162, 6-(7-chloro-10-(3-(4-chloro-3,5-dimethylphenoxy)propyl)-1-oxo-6-(1,3,5-trimethyl-1H-pyrazol-4-yl)-3,4-dihydropyrazino[1,2-a]indol-2(1H)-yl)-1-methyl-1H-indole-4-carboxylic acid] | < 50 |
| Cc1cc(OCCCc2c3n(c4c(-c5c(C)nn(C)c5C)c(Cl)ccc24)[C@@H](C)CN(c2ccc(C(=O)O)cc2)C3=O)cc(C)c1Cl [I-166, (S)-4-(7-chloro-10-(3-(4-chloro-3,5-dimethylphenoxy)propyl)-4-methyl-1-oxo-6-(1,3,5-trimethyl-1H-pyrazol-4-yl)-3,4-dihydropyrazino[1,2-a]indol-2(1H)-yl)benzoic acid] | < 50 |
| Cc1cc(OCCCc2c3n(c4c(-c5c(C)nn(C)c5C)c(Cl)ccc24)CCCN(c2nn(C)c4cc(C(=O)O)ccc24)C3=O)cc(C)c1Cl [I-375, 3-(8-chloro-11-(3-(4-chloro-3,5-dimethylphenoxy)propyl)-1-oxo-7-(1,3,5-trimethyl-1H-pyrazol-4-yl)-4,5-dihydro-1H-[1,4]diazepino[1,2-a]indol-2(3H)-yl)-1-methyl-1H-indazole-6-carboxylic acid] | < 50 |
| Cc1cc(OCCCc2c3n(c4c(-c5c(C)nn(C)c5C)c(Cl)ccc24)CCCN(c2cc(C(=O)O)cc(N4CCN(C)CC4)c2)C3=O)cc(C)c1Cl [I-219, 3-(8-chloro-11-(3-(4-chloro-3,5-dimethylphenoxy)propyl)-1-oxo-7-(1,3,5-trimethyl-1H-pyrazol-4-yl)-4,5-dihydro-1H-[1,4]diazepino[1,2-a]indol-2(3H)-yl)-5-(4-methylpiperazin-1-yl)benzoic acid] | < 50 |
| Cc1cc(OCCCc2c(C(=O)N[C@H]3CC[C@@H](C(=O)O)C3)[nH]c3c(-c4c(C)nn(C)c4C)c(Cl)ccc23)cc(C)c1Cl [I-330, (1R,3S)-3-(6-chloro-3-(3-(4-chloro-3,5-dimethylphenoxy)propyl)-7-(1,3,5-trimethyl-1H-pyrazol-4-yl)-1H-indole-2-carboxamido)cyclopentane-1-carboxylic acid] | < 50 |
| Cc1cc(OCCCc2c(C(=O)N3CCN(c4ccc(C(=O)O)cc4)CC3)n(Cc3cccnc3)c3c(-c4c(C)nn(C)c4C)c(Cl)ccc23)cc(C)c1Cl [I-338, 4-(4-(6-chloro-3-(3-(4-chloro-3,5-dimethylphenoxy)propyl)-1-(pyridin-3-ylmethyl)-7-(1,3,5-trimethyl-1H-pyrazol-4-yl)-1H-indole-2-carbonyl)piperazin-1-yl)benzoic acid] | < 50 |
| Cc1cc(OCCCc2c3n(c4c(-c5c(C)nn(C)c5C)c(Cl)ccc24)CCCN(Cc2cc(C(=O)O)cc(OCCC(C)C)n2)C3=O)cc(C)c1Cl [I-302, 2-((8-chloro-11-(3-(4-chloro-3,5-dimethylphenoxy)propyl)-1-oxo-7-(1,3,5-trimethyl-1H-pyrazol-4-yl)-4,5-dihydro-1H-[1,4]diazepino[1,2-a]indol-2(3H)-yl)methyl)-6-(isopentyloxy)isonicotinic acid] | < 50 |
| Cc1cc(OCCCc2c3n(c4c(-c5c(C)nn(C)c5C)c(Cl)ccc24)[C@H](C)CN(c2cc(C(=O)O)cc4c2ccn4C)C3=O)cc(C)c1Cl [I-170, (R)-4-(7-chloro-10-(3-(4-chloro-3,5-dimethylphenoxy)propyl)-4-methyl-1-oxo-6-(1,3,5-trimethyl-1H-pyrazol-4-yl)-3,4-dihydropyrazino[1,2-a]indol-2(1H)-yl)-1-methyl-1H-indole-6-carboxylic acid] | < 50 |
| Cc1nn(C)c(C)c1-c1cccc2c(CCCOc3cccc4ccccc34)c(C(=O)Nc3cccc(C(=O)O)c3)[nH]c12 [I-193, 3-(3-(3-(naphthalen-1-yloxy)propyl)-7-(1,3,5-trimethyl-1H-pyrazol-4-yl)-1H-indole-2-carboxamido)benzoic acid] | < 50 |
| Cc1cc(OCCCc2c3n(c4c(-c5c(C)nn(C)c5C)c(Cl)ccc24)CCCN(c2scnc2C(=O)O)C3=O)cc(C)c1Cl [I-350, 5-(8-chloro-11-(3-(4-chloro-3,5-dimethylphenoxy)propyl)-1-oxo-7-(1,3,5-trimethyl-1H-pyrazol-4-yl)-4,5-dihydro-1H-[1,4]diazepino[1,2-a]indol-2(3H)-yl)thiazole-4-carboxylic acid] | < 50 |
| Cc1cc(OCCCc2c3n(c4c(-c5c(C)nn(C)c5C)c(Cl)ccc24)CCCN(Cc2cc(C(=O)O)cc(-c4ccc(OCc5ccccc5C(F)(F)F)cc4)c2)C3=O)cc(C)c1Cl [I-308, 5-((8-chloro-1-(3-(4-chloro-3,5-dimethylphenoxy)propyl)-1-oxo-7-(1,3,5-trimethyl-1H-pyrazol-4-yl)-4,5-dihydro-1H-[1,4]diazepino[1,2-a]indol-2(3H)-yl)methyl)-4′-((2-(trifluoromethyl)benzyl)oxy)-[1,1′-biphenyl]-3-carboxylic acid] | 51 to 100 |
| Cc1cc(OCCCc2c3n(c4c(-c5c(C)nn(C)c5C)c(Cl)ccc24)C(C)[C@@H](C)N(Cc2ccc(C(=O)O)o2)C3=O)cc(C)c1Cl (stereo partly drawn) [I-147, 5-(((3R)-7-chloro-10-(3-(4-chloro-3,5-dimethylphenoxy)propyl)-3,4-dimethyl-1-oxo-6-(1,3,5-trimethyl-1H-pyrazol-4-yl)-3,4-dihydropyrazino[1,2-a]indol-2(1H)-yl)methyl)furan-2-carboxylic acid] | < 50 |
| Cc1cc(OCCCc2c3n(c4c(-c5c(C)nn(C)c5C)c(Cl)ccc24)CCCN(c2cc(C(=O)O)cc4c2OCCO4)C3=O)cc(C)c1Cl [I-364, 8-(8-chloro-11-(3-(4-chloro-3,5-dimethylphenoxy)propyl)-1-oxo-7-(1,3,5-trimethyl-1H-pyrazol-4-yl)-4,5-dihydro-1H-[1,4]diazepino[1,2-a]indol-2(3H)-yl)-2,3-dihydrobenzo[b][1,4]dioxine-6-carboxylic acid] | < 50 |
| Cc1cc(OCCCc2c(C(=O)Nc3cc(NC4CCOCC4)cc(C(=O)O)c3)[nH]c3c(-c4c(C)nn(C)c4C)c(Cl)ccc23)cc(C)c1Cl [I-209, 3-(6-chloro-3-(3-(4-chloro-3,5-dimethylphenoxy)propyl)-7-(1,3,5-trimethyl-1H-pyrazol-4-yl)-1H-indole-2-carboxamido)-5-((tetrahydro-2H-pyran-4-yl)amino)benzoic acid] | < 50 |
| Cc1cc(OCCCc2c3n(c4c(-c5c(C)nn(C)c5C)c(Cl)ccc24)[C@H](C)CN(Cc2ccc(C(=O)O)cn2)C3=O)cc(C)c1Cl [I-153, (R)-6-((7-chloro-10-(3-(4-chloro-3,5-dimethylphenoxy)propyl)-4-methyl-1-oxo-6-(1,3,5-trimethyl-1H-pyrazol-4-yl)-3,4-dihydropyrazino[1,2-a]indol-2(1H)-yl)methyl)nicotinic acid] | < 50 |
| Cc1cc(OCCCc2c3n(c4c(-c5c(C)nn(C)c5C)c(Cl)ccc24)C(C)CN(Cc2ccc(C(=O)O)o2)C3=O)cc(C)c1Cl (centres unmarked) [I-128, 5-((7-chloro-10-(3-(4-chloro-3,5-dimethylphenoxy)propyl)-4-methyl-1-oxo-6-(1,3,5-trimethyl-1H-pyrazol-4-yl)-3,4-dihydropyrazino[1,2-a]indol-2(1H)-yl)methyl)furan-2-carboxylic acid] | < 50 |
| Cc1cc(OCCCc2c(C(=O)Nc3cccc(C#N)c3)[nH]c3c(-c4c(C)nn(C)c4C)c(Cl)ccc23)cc(C)c1Cl [I-352, 6-chloro-3-(3-(4-chloro-3,5-dimethylphenoxy)propyl)-N-(3-cyanophenyl)-7-(1,3,5-trimethyl-1H-pyrazol-4-yl)-1H-indole-2-carboxamide] | 51 to 100 |
| Cc1cc(OCCCc2c(C(=O)Nc3ccc(CC(=O)O)cc3)[nH]c3c(-c4c(C)nn(C)c4C)cccc23)cc(C)c1Cl [I-205, 2-(4-(3-(3-(4-chloro-3,5-dimethylphenoxy)propyl)-7-(1,3,5-trimethyl-1H-pyrazol-4-yl)-1H-indole-2-carboxamido)phenyl)acetic acid] | < 50 |
